Experimental data as given in patent US9957264B2 (Merck Sharp & Dohme Corp., priority 2013, dated 2018).

Key:
[1] = molecular target: JAK1 (recombinant purified GST-tagged catalytic domain) (Homo sapiens (Human), UniProt P23458); assay: Jak Biochemical HTRF Assay (JAK1); conditions: [ATP] 31.8 μM
In short: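 HTRF kinase format: compounds pre-equilibrated with recombinant GST-tagged JAK1 or JAK2 catalytic domain, then ATP started a 120 min room-temperature reaction on a common peptide substrate. Phosphopeptide detected via Eu-pY20/streptavidin-Dylight 650 after EDTA quench; percent inhibition versus log concentration fitted (4-parameter) to give IC50.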

[2] = molecular target: JAK2 (recombinant purified GST-tagged catalytic domain) (Homo sapiens (Human), UniProt O60674); assay: Jak Biochemical HTRF Assay (JAK2); conditions: [ATP] 8.5 μM
Sequence of JAK2 (recombinant purified GST-tagged catalytic domain) (O60674 849-1124): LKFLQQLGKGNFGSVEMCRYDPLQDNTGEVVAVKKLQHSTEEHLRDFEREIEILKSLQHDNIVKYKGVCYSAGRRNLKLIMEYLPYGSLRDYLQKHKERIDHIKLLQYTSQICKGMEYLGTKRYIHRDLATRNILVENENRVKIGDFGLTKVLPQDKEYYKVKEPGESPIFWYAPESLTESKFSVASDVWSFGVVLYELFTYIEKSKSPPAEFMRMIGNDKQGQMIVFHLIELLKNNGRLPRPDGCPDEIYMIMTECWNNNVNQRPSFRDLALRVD

Sequence of JAK1 (recombinant purified GST-tagged catalytic domain) (P23458 875-1153): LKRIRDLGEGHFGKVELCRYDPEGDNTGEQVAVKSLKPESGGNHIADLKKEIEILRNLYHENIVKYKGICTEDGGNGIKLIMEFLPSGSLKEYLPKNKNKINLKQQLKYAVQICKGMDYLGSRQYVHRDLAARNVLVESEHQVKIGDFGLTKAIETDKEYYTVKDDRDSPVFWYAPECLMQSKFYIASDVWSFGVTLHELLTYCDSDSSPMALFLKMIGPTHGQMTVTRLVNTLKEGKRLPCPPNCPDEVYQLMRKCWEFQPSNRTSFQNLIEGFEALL

Question: What does the source list for `CC(C)(C)OC(=O)[C@@H]1CC[C@@](CC#N)(n2nc(Nc3ccc(C(N)C(F)(F)F)cc3)c3c(=O)[nH]ccc32)CO1` (stereo partly drawn) [Example 5-103, (2S,5S)-tert-butyl 5-(3-((4-(1-amino-2,2,2-trifluoroethyl)phenyl)amino)-4-oxo-4,5-dihydro-1H-pyrazolo[4,3-c]pyridin-1-yl)-5-(cyanomethyl)tetrahydro-2H-pyran-2-carboxylate]?
Answer: IC50 [1]: 0.07 nM; IC50 [2]: 0.23 nM

Question: Which IC50 [1] does the source give for `CC(C)(C)OC(=O)[C@@H]1CC[C@@](CC#N)(n2nc(Nc3ccc(C(N)C(F)(F)F)cc3)c3c(=O)[nH]ccc32)CO1` (stereo partly drawn) [Example 5-104, (2S,5S)-tert-butyl 5-(3-((4-(1-amino-2,2,2-trifluoroethyl)phenyl)amino)-4-oxo-4,5-dihydro-1H-pyrazolo[4,3-c]pyridin-1-yl)-5-(cyanomethyl)tetrahydro-2H-pyran-2-carboxylate] here?
Answer: 0.07 nM

Question: What about the IC50 [2] of the same compound?
Answer: 0.27 nM

Question: How did the IC50 [1] turn out when `N#CC[C@@]1(n2nc(Nc3ccc(S(=O)(=O)N4CCC4)cc3)c3c(=O)[nH]ccc32)CCCOC1` [Example 5-105, [(3S)-3-(3-{[4-(azetidin-1-ylsulfonyl)phenyl]amino}-4-oxo-4,5-dihydro-1H-pyrazolo[4,3-c]pyridin-1-yl)tetrahydro-2H-pyran-3-yl]acetonitrile] was run?
Answer: 0.23 nM

Question: What about the IC50 [2] of the same compound?
Answer: 0.55 nM

Question: How did the IC50 [1] turn out when `CC1CN(S(=O)(=O)c2ccc(Nc3nn([C@]4(CC#N)CCCOC4)c4cc[nH]c(=O)c34)cc2)C1` [Example 5-106, {(3S)-3-[3-({4-[(3-methylazetidin-1-yl)sulfonyl]phenyl}amino)-4-oxo-4,5-dihydro-1H-pyrazolo[4,3-c]pyridin-1-yl]tetrahydro-2H-pyran-3-yl}acetonitrile] was run?
Answer: 0.39 nM

Question: And the IC50 [2]?
Answer: 0.99 nM

Question: Which results are given for `CC1(C)CCCN1S(=O)(=O)c1ccc(Nc2nn([C@]3(CC#N)CCCOC3)c3cc[nH]c(=O)c23)cc1` [Example 5-107, {(3S)-3-[3-({4-[(2,2-dimethylpyrrolidin-1-yl)sulfonyl]phenyl}amino)-4-oxo-4,5-dihydro-1H-pyrazolo[4,3-c]pyridin-1-yl]tetrahydro-2H-pyran-3-yl} acetonitrile]?
Answer: IC50 [1]: 0.2 nM; IC50 [2]: 0.33 nM

Question: For `Cc1cc(Nc2nn([C@]3(CC#N)CCCOC3)c3cc[nH]c(=O)c23)ccc1C(=O)N1CC[C@@H](F)C1` [Example 5-115, 2-((S)-3-(3-((4-((R)-3-fluoropyrrolidine-1-carbonyl)-3-methylphenyl)amino)-4-oxo-4,5-dihydro-1H-pyrazolo[4,3-c]pyridin-1-yl)tetrahydro-2H-pyran-3-yl)acetonitrile], which IC50 [1] is on record?
Answer: 0.33 nM

Question: What about the IC50 [2] of the same compound?
Answer: 0.99 nM

Question: With `CO[C@H]1CCN(C(=O)c2ccc(Nc3nn([C@]4(CC#N)CCCOC4)c4cc[nH]c(=O)c34)cc2C)C1` [Example 5-116, 2-((S)-3-(3-((4-((S)-3-methoxypyrrolidine-1-carbonyl)-3-methylphenyl)amino)-4-oxo-4,5-dihydro-1H-pyrazolo[4,3-c]pyridin-1-yl)tetrahydro-2H-pyran-3-yl)acetonitrile] as the compound, how does the IC50 [1] read?
Answer: 0.61 nM

Question: And the IC50 [2]?
Answer: 1.22 nM

Question: How did the IC50 [1] turn out when `CO[C@@H]1CCN(C(=O)c2ccc(Nc3nn([C@]4(CC#N)CCCOC4)c4cc[nH]c(=O)c34)cc2C)C1` [Example 5-117, 2-((S)-3-(3-((4-((R)-3-methoxypyrrolidine-1-carbonyl)-3-methylphenyl)amino)-4-oxo-4,5-dihydro-1H-pyrazolo[4,3-c]pyridin-1-yl)tetrahydro-2H-pyran-3-yl)acetonitrile] was run?
Answer: 0.45 nM

Question: And the IC50 [2]?
Answer: 1.36 nM

Question: With `Cc1cc(Nc2nn([C@]3(CC#N)CCCOC3)c3cc[nH]c(=O)c23)ccc1C(=O)N1CCOCC1` [Example 5-118, (S)-2-(3-(3-((3-methyl-4-(morpholine-4-carbonyl)phenyl)amino)-4-oxo-4,5-dihydro-1H-pyrazolo[4,3-c]pyridin-1-yl)tetrahydro-2H-pyran-3-yl)acetonitrile] as the compound, how does the IC50 [1] read?
Answer: 0.34 nM

Question: What about the IC50 [2] of the same compound?
Answer: 0.76 nM
